Assay results taken from ChEMBL document CHEMBL1155103, “Synthesis and SAR of novel, potent and orally bioavailable benzimidazole inhibitors of poly(ADP-ribose) polymerase (PARP) with a quaternary methylene-amino substituent” (Bioorg Med Chem Lett, 2008).
Calls of active or inactive are those of the source. No cut-off for these calls is given here.

System: not listed separately
Assay: AUC in mouse at 10 mg/kg, po
Format: ADME, organism-based
Design: dose 10 mg/kg, route oral
Details: plasma

| SMILES | AUC [µM·h] |
| --- | --- |
| CC(C)(NCC1CC1)c1nc2c(C(N)=O)cccc2[nH]1 | 3.38 |
| CNC(C)(C)c1nc2cccc(C(N)=O)c2[nH]1 | 8.64 |
| CC(C)(c1nc2c(C(N)=O)cccc2[nH]1)N1CCCC1 | 6.33 |
| CC(C)NC(C)(C)c1nc2c(C(N)=O)cccc2[nH]1 | 5.78 |

System: not listed separately
Assay: Volume of distribution in dog at 2.5 mg/kg, iv and 2.5 mg/kg, po
Format: ADME, organism-based, Canis lupus familiaris
Details: in vivo

| SMILES | Vd [L/kg] |
| --- | --- |
| CC(C)NC(C)(C)c1nc2c(C(N)=O)cccc2[nH]1 | 2.9 |

System: not listed separately
Assay: Volume of distribution in mouse at 3 mg/kg, iv and 10 mg/kg, po
Format: ADME, organism-based
Details: in vivo

| SMILES | Vd [L/kg] |
| --- | --- |
| CC(C)NC(C)(C)c1nc2c(C(N)=O)cccc2[nH]1 | 2.1 |

System: not listed separately
Assay: Half life in rat at 5 mg/kg, iv and 5 mg/kg, po
Format: ADME, organism-based
Details: in vivo

| SMILES | half-life [min] |
| --- | --- |
| CC(C)NC(C)(C)c1nc2c(C(N)=O)cccc2[nH]1 | 60 |

System: not listed separately
Assay: Half life in monkey at 2.5 mg/kg, iv and 2.5 mg/kg, po
Format: ADME, organism-based, Macaca mulatta
Details: rhesus monkey, in vivo

| SMILES | half-life [min] |
| --- | --- |
| CC(C)NC(C)(C)c1nc2c(C(N)=O)cccc2[nH]1 | 36 |

System: not listed separately
Assay: AUC in monkey at 2.5 mg/kg, po
Format: ADME, organism-based, Macaca mulatta
Design: dose 2.5 mg/kg, route oral
Details: rhesus monkey, plasma

| SMILES | AUC [µM·h] |
| --- | --- |
| CC(C)NC(C)(C)c1nc2c(C(N)=O)cccc2[nH]1 | 0.65 |

System: not listed separately
Assay: Half life in mouse at 3 mg/kg, iv and 10 mg/kg, po
Format: ADME, organism-based
Details: in vivo

| SMILES | half-life [min] |
| --- | --- |
| CC(C)NC(C)(C)c1nc2c(C(N)=O)cccc2[nH]1 | 36 |

System: B16-F10
Assay: Potentiation of temozolomide-induced cytotoxicity in mouse B16F10 cells […] C57BL/6 mouse melanoma model assessed as reduction in tumor volume at 30 mg/kg, po
Format: functional, organism-based
Design: dose 30 mg/kg
Details: not given

| SMILES | Activity |
| --- | --- |
| CC(C)(c1nc2c(C(N)=O)cccc2[nH]1)N1CCCC1 | Active |
| CC(C)NC(C)(C)c1nc2c(C(N)=O)cccc2[nH]1 | Active |

System: not listed separately
Assay: Volume of distribution in monkey at 2.5 mg/kg, iv and 2.5 mg/kg, po
Format: ADME, organism-based, Macaca mulatta
Details: rhesus monkey, in vivo

| SMILES | Vd [L/kg] |
| --- | --- |
| CC(C)NC(C)(C)c1nc2c(C(N)=O)cccc2[nH]1 | 1.1 |

System: not listed separately
Assay: Oral bioavailability in mouse at 10 mg/kg
Format: ADME, organism-based
Details: in vivo

| SMILES | bioavailability [%] |
| --- | --- |
| CC(C)(NCC1CC1)c1nc2c(C(N)=O)cccc2[nH]1 | 100 |
| CNC(C)(C)c1nc2cccc(C(N)=O)c2[nH]1 | 85 |
| CC(C)(c1nc2c(C(N)=O)cccc2[nH]1)N1CCCC1 | 52 |
| CC(C)NC(C)(C)c1nc2c(C(N)=O)cccc2[nH]1 | 82 |

System: not listed separately
Assay: AUC in dog at 2.5 mg/kg, po
Format: ADME, organism-based, Canis lupus familiaris
Design: dose 2.5 mg/kg, route oral
Details: plasma

| SMILES | AUC [µM·h] |
| --- | --- |
| CC(C)NC(C)(C)c1nc2c(C(N)=O)cccc2[nH]1 | 6.07 |

Biological target: T1, Poly [ADP-ribose] polymerase 1 (Homo sapiens, UniProt P09874)
T1 sequence (P09874 whole entry): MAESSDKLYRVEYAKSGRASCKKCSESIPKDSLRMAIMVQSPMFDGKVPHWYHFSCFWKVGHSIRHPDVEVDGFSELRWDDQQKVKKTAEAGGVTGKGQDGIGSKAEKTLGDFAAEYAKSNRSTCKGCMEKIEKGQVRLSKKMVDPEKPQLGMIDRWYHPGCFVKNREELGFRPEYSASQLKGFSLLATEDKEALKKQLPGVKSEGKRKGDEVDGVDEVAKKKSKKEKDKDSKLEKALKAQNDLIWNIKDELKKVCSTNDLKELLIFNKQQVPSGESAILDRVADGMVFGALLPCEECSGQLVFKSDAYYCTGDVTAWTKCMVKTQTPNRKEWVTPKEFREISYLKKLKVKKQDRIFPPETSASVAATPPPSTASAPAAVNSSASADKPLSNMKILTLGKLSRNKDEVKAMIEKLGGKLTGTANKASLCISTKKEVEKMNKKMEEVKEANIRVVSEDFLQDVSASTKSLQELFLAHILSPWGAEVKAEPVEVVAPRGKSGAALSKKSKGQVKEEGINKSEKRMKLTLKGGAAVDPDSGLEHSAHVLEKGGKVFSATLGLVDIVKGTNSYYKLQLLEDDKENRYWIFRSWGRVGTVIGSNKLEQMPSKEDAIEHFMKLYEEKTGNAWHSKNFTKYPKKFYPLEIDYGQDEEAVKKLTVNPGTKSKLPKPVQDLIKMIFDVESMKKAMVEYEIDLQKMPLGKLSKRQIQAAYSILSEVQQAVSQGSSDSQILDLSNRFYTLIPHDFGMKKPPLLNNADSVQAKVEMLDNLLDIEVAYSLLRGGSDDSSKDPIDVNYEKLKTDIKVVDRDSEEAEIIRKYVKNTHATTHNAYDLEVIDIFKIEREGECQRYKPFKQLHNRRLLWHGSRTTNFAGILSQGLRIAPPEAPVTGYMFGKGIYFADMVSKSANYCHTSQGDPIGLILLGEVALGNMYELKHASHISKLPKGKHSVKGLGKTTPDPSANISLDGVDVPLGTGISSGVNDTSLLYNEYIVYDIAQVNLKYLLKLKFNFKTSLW
Assay: Inhibition of PARP1 in cell based assay
Details: not given

| SMILES | EC50 [µM] |
| --- | --- |
| CC(C)(c1nc2cccc(C(N)=O)c2[nH]1)N1CCCCC1 | 0.0031 |
| CC(C)(NC1CCCC1)c1nc2c(C(N)=O)cccc2[nH]1 | 0.004 |
| CC(C)(NCCc1ccccc1)c1nc2c(C(N)=O)cccc2[nH]1 | 0.009 |
| CC(C)(NCC1CC1)c1nc2c(C(N)=O)cccc2[nH]1 | 0.002 |
| CNC(C)(C)c1nc2cccc(C(N)=O)c2[nH]1 | 0.0013 |
| CN(C)C(C)(C)c1nc2cccc(C(N)=O)c2[nH]1 | 0.0018 |
| CC(C)(c1nc2c(C(N)=O)cccc2[nH]1)N1CCCC1 | 0.0009 |
| CC(C)NC(C)(C)c1nc2c(C(N)=O)cccc2[nH]1 | 0.002 |
| CCCNC(C)(C)c1nc2c(C(N)=O)cccc2[nH]1 | 0.003 |

System: not listed separately
Assay: Clearance in rat at 5 mg/kg, iv and 5 mg/kg, po
Format: ADME, organism-based
Details: in vivo

| SMILES | clearance [L/h/kg] |
| --- | --- |
| CC(C)NC(C)(C)c1nc2c(C(N)=O)cccc2[nH]1 | 5.1 |

System: not listed separately
Assay: Clearance in mouse at 3 mg/kg, iv and 10 mg/kg, po
Format: ADME, organism-based
Details: in vivo

| SMILES | clearance [L/h/kg] |
| --- | --- |
| CC(C)NC(C)(C)c1nc2c(C(N)=O)cccc2[nH]1 | 4 |

System: not listed separately
Assay: Half life in mouse at 5 mg/kg, iv
Format: ADME, organism-based
Design: dose 5 mg/kg, route intravenous
Details: in vivo

| SMILES | half-life [min] |
| --- | --- |
| CC(C)(NCC1CC1)c1nc2c(C(N)=O)cccc2[nH]1 | 48 |
| CNC(C)(C)c1nc2cccc(C(N)=O)c2[nH]1 | 36 |
| CC(C)(c1nc2c(C(N)=O)cccc2[nH]1)N1CCCC1 | 24 |
| CC(C)NC(C)(C)c1nc2c(C(N)=O)cccc2[nH]1 | 36 |

System: not listed separately
Assay: AUC in rat at 5 mg/kg, po
Format: ADME, organism-based
Design: dose 5 mg/kg, route oral
Details: plasma

| SMILES | AUC [µM·h] |
| --- | --- |
| CC(C)NC(C)(C)c1nc2c(C(N)=O)cccc2[nH]1 | 0.74 |

System: not listed separately
Assay: Oral bioavailability in rat at 5 mg/kg
Format: ADME, organism-based
Details: in vivo

| SMILES | bioavailability [%] |
| --- | --- |
| CC(C)NC(C)(C)c1nc2c(C(N)=O)cccc2[nH]1 | 26 |

System: not listed separately
Assay: Clearance in monkey at 2.5 mg/kg, iv and 2.5 mg/kg, po
Format: ADME, organism-based, Macaca mulatta
Details: rhesus monkey, in vivo

| SMILES | clearance [L/h/kg] |
| --- | --- |
| CC(C)NC(C)(C)c1nc2c(C(N)=O)cccc2[nH]1 | 1.4 |

System: not listed separately
Assay: Clearance in dog at 2.5 mg/kg, iv and 2.5 mg/kg, po
Format: ADME, organism-based, Canis lupus familiaris
Details: in vivo

| SMILES | clearance [L/h/kg] |
| --- | --- |
| CC(C)NC(C)(C)c1nc2c(C(N)=O)cccc2[nH]1 | 0.85 |

System: not listed separately
Assay: Oral bioavailability in dog at 2.5 mg/kg
Format: ADME, organism-based, Canis lupus familiaris
Details: in vivo

| SMILES | bioavailability [%] |
| --- | --- |
| CC(C)NC(C)(C)c1nc2c(C(N)=O)cccc2[nH]1 | 70.5 |

System: not listed separately
Assay: Oral bioavailability in monkey at 2.5 mg/kg
Format: ADME, organism-based, Macaca mulatta
Details: rhesus monkey, in vivo

| SMILES | bioavailability [%] |
| --- | --- |
| CC(C)NC(C)(C)c1nc2c(C(N)=O)cccc2[nH]1 | 12.6 |

System: not listed separately
Assay: Clearance in mouse at 5 mg/kg, iv and 10 mg/kg, po
Format: ADME, organism-based
Details: in vivo

| SMILES | clearance [L/h/kg] |
| --- | --- |
| CC(C)(NCC1CC1)c1nc2c(C(N)=O)cccc2[nH]1 | 11.5 |
| CNC(C)(C)c1nc2cccc(C(N)=O)c2[nH]1 | 4.2 |
| CC(C)(c1nc2c(C(N)=O)cccc2[nH]1)N1CCCC1 | 3 |
| CC(C)NC(C)(C)c1nc2c(C(N)=O)cccc2[nH]1 | 4 |

System: not listed separately
Assay: Volume of distribution in rat at 5 mg/kg, iv and 5 mg/kg, po
Format: ADME, organism-based
Details: in vivo

| SMILES | Vd [L/kg] |
| --- | --- |
| CC(C)NC(C)(C)c1nc2c(C(N)=O)cccc2[nH]1 | 3.7 |

System: not listed separately
Assay: Half life in dog at 2.5 mg/kg, iv and 2.5 mg/kg, po
Format: ADME, organism-based, Canis lupus familiaris
Details: in vivo

| SMILES | half-life [min] |
| --- | --- |
| CC(C)NC(C)(C)c1nc2c(C(N)=O)cccc2[nH]1 | 168 |

System: not listed separately
Assay: Volume of distribution in mouse at 5 mg/kg, iv and 10 mg/kg, po
Format: ADME, organism-based
Details: in vivo

| SMILES | Vd [L/kg] |
| --- | --- |
| CC(C)(NCC1CC1)c1nc2c(C(N)=O)cccc2[nH]1 | 13.3 |
| CNC(C)(C)c1nc2cccc(C(N)=O)c2[nH]1 | 3.5 |
| CC(C)(c1nc2c(C(N)=O)cccc2[nH]1)N1CCCC1 | 1.8 |
| CC(C)NC(C)(C)c1nc2c(C(N)=O)cccc2[nH]1 | 2.1 |

Biological target: T1, Poly [ADP-ribose] polymerase 1
Assay: Inhibition of PARP1
Details: not given

| SMILES | Ki [µM] |
| --- | --- |
| CN(CC1CCOC1)C(C)(C)c1nc2cccc(C(N)=O)c2[nH]1 (stereo not drawn) | 0.017 |
| CC(NC1CCCCC1)c1nc2c(C(N)=O)cccc2[nH]1 (stereo not drawn) | 0.053 |
| CC(C)(c1nc2cccc(C(N)=O)c2[nH]1)N1CCCCC1 | 0.015 |
| CC(C)(NC1CCCC1)c1nc2c(C(N)=O)cccc2[nH]1 | 0.009 |
| CC(C)(NCCc1ccccc1)c1nc2c(C(N)=O)cccc2[nH]1 | 0.037 |
| CCNC(=O)NC(C)(C)c1nc2c(C(N)=O)cccc2[nH]1 | 0.87 |
| CC(C)(NCC1CC1)c1nc2c(C(N)=O)cccc2[nH]1 | 0.007 |
| NC(=O)c1cccc2[nH]c(C3(N)CCCCC3)nc12 | 0.05 |
| NC(=O)c1cccc2[nH]c(C3(N)CCc4ccccc4C3)nc12 (stereo not drawn) | 0.018 |
| CC(CCNC1CCCC1)c1nc2c(C(N)=O)cccc2[nH]1 (stereo not drawn) | 0.045 |
| CNC(C)(C)c1nc2cccc(C(N)=O)c2[nH]1 | 0.004 |
| NC(=O)c1cccc2[nH]c(C3(N)CCC3)nc12 | 0.025 |
| CCN(CC)C(C)c1nc2c(C(N)=O)cccc2[nH]1 (stereo not drawn) | 0.061 |
| CN(C1CCC1)C(C)(C)c1nc2c(C(N)=O)cccc2[nH]1 | 0.019 |
| NC(=O)c1cccc2[nH]c(C3(N)Cc4ccccc4C3)nc12 | 0.058 |
| NC(=O)c1cccc2[nH]c(C3(N)CC3)nc12 | 0.025 |
| CC(NCC1CC1)c1nc2c(C(N)=O)cccc2[nH]1 (stereo not drawn) | 0.024 |

More lines, now with the values ahead:

| Ki [µM] | SMILES |
| --- | --- |
| 0.019 | CC(C)(N)c1nc2c(C(N)=O)cccc2[nH]1 |
| 0.14 | CC(NS(=O)(=O)N(C)C)c1nc2c(C(N)=O)cccc2[nH]1 (stereo not drawn) |
| 0.012 | CC(C)NC(C)c1nc2c(C(N)=O)cccc2[nH]1 (stereo not drawn) |
| 0.05 | CC(N)c1nc2c(C(N)=O)cccc2[nH]1 (stereo not drawn) |
| 0.033 | CC(NC1CCCC1)c1nc2c(C(N)=O)cccc2[nH]1 (stereo not drawn) |
| 0.009 | CN(C)C(C)(C)c1nc2cccc(C(N)=O)c2[nH]1 |
| 0.041 | CCCNC(C)c1nc2c(C(N)=O)cccc2[nH]1 (stereo not drawn) |
| 0.035 | CC(NCCc1ccccc1)c1nc2c(C(N)=O)cccc2[nH]1 (stereo not drawn) |
| 0.032 | CC(CCN)c1nc2c(C(N)=O)cccc2[nH]1 (stereo not drawn) |
| 0.003 | CC(C)(c1nc2c(C(N)=O)cccc2[nH]1)N1CCCC1 |
| 0.007 | CC(C)NC(C)(C)c1nc2c(C(N)=O)cccc2[nH]1 |
| 0.01 | CCCNC(C)(C)c1nc2c(C(N)=O)cccc2[nH]1 |
